Here are results for nine molecules from PubChem BioAssay (NCI).

Among the test systems are MOLT-4 leukemia; SN12C renal; RPMI-8226 leukemia; NCI/ADR-RES ovarian; PC-3 prostate; NCI-H460 lung; MDA-MB-231 breast; TK-10 renal; HT29 colon; CCRF-CEM leukemia.
Common to all, as to experiment: inhibition of tumour cell growth, NCI panel, 48 h

Several values for one entry are separate records, joined by “and”; a condition that tells them apart may be missing. Equal entries are not always repeated.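 Results reflect a 48-hour exposure of cells in 96-well plates to compound at five concentrations. At the GI50, growth is halved. The concentration for full growth arrest is given as TGI.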

`N=c1ccn2c(n1)OC1C(OP(=O)(O)O)C(CO)OC12` (centres undefined): the TGI in the test with MOLT-4 leukemia was over 63.3 µM; in the test on SN12C renal it was over 100 µM; in the test with RPMI-8226 leukemia, over 100 µM; in the test with NCI/ADR-RES ovarian, over 100 µM; in the test on PC-3 prostate, over 100 µM; with NCI-H460 lung, over 39.2 µM. Further, the TGI in the test on MDA-MB-231 breast, in the test with TK-10 renal and in the test on HT29 colon was over 100 µM throughout.

On to `NC1=NC(=O)N2CC12` (centres undefined), for which the GI50 with MOLT-4 leukemia is 53.3 µM; in the test with NCI/ADR-RES ovarian it was 168 µM; in the test on PC-3 prostate, 86.1 µM and 321 µM; with NCI-H460 lung, 182 µM; in the test on MDA-MB-231 breast it was 107 µM; in the test with CCRF-CEM leukemia, 17.3 µM and 14.3 µM. For the same molecule, the GI50 in the test on TK-10 renal was 65.1 µM and 144 µM; with HT29 colon, 400 µM. For the same molecule, the TGI in the test on MOLT-4 leukemia was > 100 µM and 185 µM; in the test with SN12C renal, > 100 µM and 349 µM; in the test with RPMI-8226 leukemia, > 100 µM and 22 µM and 218 µM; in the test on NCI/ADR-RES ovarian, 660 µM; in the test on PC-3 prostate, 1130 µM; with NCI-H460 lung, > 100 µM and 866 µM. The TGI in the test with MDA-MB-231 breast was 244 µM; with CCRF-CEM leukemia, > 100 µM and 58.9 µM and 89.8 µM; with TK-10 renal, > 100 µM and 389 µM; with HT29 colon, > 100 µM and 3130 µM.

As to `C/C(=C\c1ccn(-c2ccc(N)c(C(F)(F)F)c2)n1)[C@@H]1C[C@@H]2O[C@]2(C)CCC[C@H](C)[C@H](O)[C@@H](C)C(=O)C(C)(C)[C@@H](O)CC(=O)O1`, the GI50 in the test on MOLT-4 leukemia is 0.0166 µM; in the test on SN12C renal it was 0.0237 µM; in the test on RPMI-8226 leukemia, under 0.0104 µM; in the test on NCI/ADR-RES ovarian it was 0.0624 µM; in the test on PC-3 prostate, 0.0119 µM; in the test on NCI-H460 lung it was 0.00848 µM. Besides, the GI50 in the test with MDA-MB-231 breast is 0.134 µM; with CCRF-CEM leukemia, 0.0117 µM; in the test on TK-10 renal, 0.0548 µM; in the test on HT29 colon it was 0.00542 µM. The TGI is 19.8 µM in the test on MOLT-4 leukemia; over 32.5 µM with SN12C renal; 10.5 µM in the test with RPMI-8226 leukemia; 8.31 µM in the test on NCI/ADR-RES ovarian; over 31 µM in the test with PC-3 prostate; 6.21 µM in the test with NCI-H460 lung. Besides, the TGI with MDA-MB-231 breast was over 25 µM; in the test on CCRF-CEM leukemia it was over 32.5 µM; with TK-10 renal, 16.9 µM; in the test on HT29 colon, 6.13 µM.

Consider `Nc1ccccc1NC(=O)c1ccc(CSc2nc(N3CCOCC3)c3cccn3n2)cc1`, for which the GI50 is 1.38 µM with SN12C renal; 0.311 µM with RPMI-8226 leukemia; 0.445 µM in the test on NCI/ADR-RES ovarian; 0.752 µM in the test with PC-3 prostate; 0.524 µM with NCI-H460 lung; 0.806 µM in the test with MDA-MB-231 breast. Moreover, the results for the GI50 in the test with CCRF-CEM leukemia, in the test with TK-10 renal and with HT29 colon were 0.246 µM, 0.163 µM and 0.411 µM, respectively. Besides, the TGI with SN12C renal is over 100 µM; in the test on RPMI-8226 leukemia it was 1.26 µM; in the test on NCI/ADR-RES ovarian, over 100 µM; in the test on PC-3 prostate, 41.4 µM; in the test with NCI-H460 lung, over 100 µM; with MDA-MB-231 breast, 11.7 µM. Further, the TGI with CCRF-CEM leukemia was over 100 µM; in the test on TK-10 renal, 1.61 µM; in the test with HT29 colon, 4.54 µM.

On to `CCc1ccc(C2=C/C(=C/c3ccc(Cl)cc3)C(=O)N2CCc2ccc(S(N)(=O)=O)cc2)cc1`, for which the GI50 with MOLT-4 leukemia is 2.19 µM; in the test with RPMI-8226 leukemia, 2.28 µM; in the test on NCI/ADR-RES ovarian, 4.6 µM; in the test on PC-3 prostate, 1.9 µM; with MDA-MB-231 breast, 2.36 µM; in the test with CCRF-CEM leukemia it was 3.44 µM. The figures for the GI50 in the test on TK-10 renal and in the test on HT29 colon were 2.21 µM and 2.22 µM, respectively. In addition, the TGI with MOLT-4 leukemia worked out at 6.87 µM; with RPMI-8226 leukemia it was 6.14 µM; with NCI/ADR-RES ovarian, 41.4 µM; in the test on PC-3 prostate, 5.36 µM; in the test on MDA-MB-231 breast, 5.92 µM; in the test with CCRF-CEM leukemia it was 32.8 µM. In addition, the TGI in the test on TK-10 renal came to 7.37 µM; in the test on HT29 colon, 4.58 µM.

As for `O=c1[nH]cnc2c(C3OC(CO)C(O)C3O)[nH]nc12` (centres undefined), the TGI in the test with MOLT-4 leukemia is 81 µM; in the test with SN12C renal, over 100 µM; in the test on RPMI-8226 leukemia, over 100 µM; with NCI/ADR-RES ovarian, over 100 µM; with PC-3 prostate it was over 100 µM; in the test on NCI-H460 lung it was over 100 µM. The TGI in the test with MDA-MB-231 breast, in the test on CCRF-CEM leukemia and in the test on HT29 colon was over 100 µM in each case.

On to `O=C1C=C(Nc2ccccc2)c2ncccc2C1=O`, for which the GI50 in the test with MOLT-4 leukemia is 1.02 µM; with SN12C renal, 0.29 µM; in the test on RPMI-8226 leukemia, 0.305 µM; in the test on NCI/ADR-RES ovarian, 0.33 µM; in the test with PC-3 prostate, 0.439 µM; with NCI-H460 lung, 0.35 µM. Also, the GI50 is 0.485 µM in the test on MDA-MB-231 breast, 1.82 µM in the test on TK-10 renal and 2.78 µM with HT29 colon. The TGI is 3.78 µM in the test with MOLT-4 leukemia; 0.829 µM in the test on SN12C renal; 1.3 µM in the test with RPMI-8226 leukemia; 1.88 µM in the test with NCI/ADR-RES ovarian; 2.29 µM with PC-3 prostate; 1.11 µM in the test with NCI-H460 lung. Besides, the TGI in the test with MDA-MB-231 breast was 3.4 µM; in the test with TK-10 renal it was 3.28 µM; in the test on HT29 colon, over 26.7 µM.

Turning to `O=C(O)C1C2C=CC(O2)C1C(=O)Nc1ccccc1` (centres undefined), the TGI in the test on MOLT-4 leukemia, with SN12C renal, in the test with RPMI-8226 leukemia, in the test on NCI/ADR-RES ovarian, in the test with PC-3 prostate and in the test on MDA-MB-231 breast was over 100 µM each time. For the same molecule, the TGI in the test on CCRF-CEM leukemia, in the test with TK-10 renal and in the test with HT29 colon was over 100 µM throughout.

Turning to `C#C[C@@]1(O)[C@@H](CO)O[C@@H](n2cc(Cl)c3c(N)ncnc32)[C@@H]1O`, the GI50 was 0.17 µM in the test on MOLT-4 leukemia; 0.151 µM in the test on RPMI-8226 leukemia; 0.0546 µM in the test on NCI/ADR-RES ovarian; 0.191 µM in the test on PC-3 prostate; under 0.0215 µM with NCI-H460 lung; 0.169 µM in the test on MDA-MB-231 breast. For the same molecule, the GI50 with CCRF-CEM leukemia was 0.248 µM; with TK-10 renal, 0.317 µM; in the test with HT29 colon, 0.0436 µM. Moreover, the TGI in the test on MOLT-4 leukemia was over 26.4 µM; in the test on RPMI-8226 leukemia it was 0.607 µM; in the test with NCI/ADR-RES ovarian, 0.777 µM; with PC-3 prostate, 4 µM; in the test on NCI-H460 lung, 0.412 µM; with MDA-MB-231 breast it was 0.951 µM. In addition, the TGI in the test with CCRF-CEM leukemia is over 100 µM; in the test with TK-10 renal it was 1.24 µM.
